The text below walks through data of patent US20190358264A1, “METHODS OF TREATING DISEASES ASSOCIATED WITH ILC2 CELLS” (Limm Therapeutics, SA, priority 2016, published 2019).

The subject of this assay is Nippostrongylus brasiliensis. Kind of assay: NmU23 treatment of N. brasiliensis infected mice. Type of assay: in vivo, mouse. How it is done:
FIGS. 12a-12f: (FIGS. 12a-12c) Mice were infected with N. brasiliensis larvae and treated with NmU23 peptide (8 g/day) or PBS (control). Lungs were analysed at day 2 post-infection. FIG. 12a, ILC2 response in lungs from NmU23 treated mice (n=5) compared to control (n=5). FIG. 12b, Burden of infection in lungs of infected mice treated with PBS (n=5) or NmU23 (n=5). FIG. 12c, Pulmonary hemorrhage in lung of infected mice treated with NmU23 compared to control. (FIGS. 12d-12f) Mice were infected with N. brasiliensis larvae and treated with NmU23 peptide (8 g/day) or PBS (control). Lungs and small intestine were analysed at day 6 post-infection. FIG. 12d, Neutrophils and eosinophils infiltrate in broncho-alveolar lavage (BAL) in infected mice treated with NmU23 versus PBS. Control n=5; NmU23 n=5. FIG. 12e, Mastocytes and Macrophages infiltrate in broncho-alveolar lavage (BAL) in infected mice treated with NmU23 versus PBS. Control n=5; NmU23 n=5. FIG. 12f, Burden of infection in small intestine of infected mice treated with PBS (n=5) or NmU23 (n=5). Error bars show s.e.m. *P<0.05; **P<0.01; ***P<0.001; ****P<0.0001; ns not significant.
For in vitro experiments, purified lung and small intestine lamina propria ILC2s were FBS starved for 2 hours prior to stimulation and cultured in complete RPMI (supplemented with 10% foetal bovine serum (FBS), 1% hepes, sodium pyruvate, glutamine, streptomycin and penicillin) at 37° C. For mRNA analysis, ILC2s were stimulated overnight with recombinant mouse Neuromedin U 23 peptide (NmU23, 100 ng/mL; Phoenix pharmaceuticals). Both NmU23-stimulated and control ILC2s were cultured in the presence of IL-2 and IL-7 (10 ng/mL; Peprotech). ILC2s were lysed using RLT buffer (Qiagen). For cytokine protein analysis, ILC2s were incubated exclusively with brefeldin A (eBioscience) for 12 hours prior to intracellular staining. For in vivo experiments, B6 mice were injected intraperitoneal with NmU23 peptide (2 g/day) during Nippostrongylus brasiliensis infection or with a single dose of NmU23 (20 μg) and analyzed after 8 hours. Control mice were treated with PBS alone.
Nippostrongylus brasiliensis was maintained by monthly passages in Lewis rats as previously described^34. Infective (iL3) worms were kindly provided by Nicola Harris (Lausanne, Switzerland). iL3 larvae were treated for 15 minutes with penicillin/streptomycin (300 U/mL; Thermo Fisher Scientific), gentamicin (1.5 mg/mL; Sigma) and tetracyclin (30 μg/mL; Sigma), washed with PBS and counted under a stereomicroscope. Mice were injected subcutaneously with 500 iL3 in 200 μL of sterile PBS using a 21 G needle. Mice were sacrificed at day 2 post-infection and lungs were collected and analysed.
Lung parasite burden was quantified in finely minced lungs and as previously described^34. Lung were placed on sterile cheesecloth and suspended in a 50 mL tube containing PBS at 37° C. for at least 4 hours. Viable worms that migrate out into the bottom of the tube were counted under a stereomicroscope (steREO Lumar V12; Zeiss).
Mice were sacrificed by cervical dislocation, and caudal lobe of the right lung was harvested, fixed in 10% neutral buffered formalin and processed for paraffin embedding. […] Slides were analyzed by a pathologist blinded to experimental groups and images were acquired in a Leica DM2500 microscope, coupled with a Leica MC 170 HD microscope camera. […]

With “recombinant mouse Neuromedin U 23 peptide (FKAEYQSPSVGQSKGYFLFRPRN; listed as Mus musculus) [NmU23, NMUR1 agonist neuropeptide, Phoenix pharmaceuticals]”, for the setting “NmU23 8 g/day vs PBS, day 2 post-infection”, the “lung haemorrhage in N. brasiliensis infected mice” value is reported as “reduced lung haemorrhage”. In addition, the “ILC2-derived IL-5, IL-13 and Amphiregulin in lungs of N. brasiliensis infected mice” value (NmU23 8 g/day vs PBS, day 2 post-infection (FIG. 12a)) is “increased ILC2-derived IL-5, IL-13 and Amphiregulin”. Moreover, the “lung parasite burden in N. brasiliensis infected mice” value (NmU23 8 g/day vs PBS, day 2 post-infection (FIG. 12b)) is on record as “decreased”. For the same substance, the “intestinal parasite burden in N. brasiliensis infected mice” value (NmU23 8 g/day vs PBS, small intestine, day 6 post-infection (FIG. 12f)) is recorded as “decreased”. Also, the “eosinophil infiltrates in the lung of N. brasiliensis infected mice” value (NmU23 intraperitoneal 2 g/day vs PBS, lungs at 48 hours) was “increased eosinophil infiltrates”.
